According to patent US7888025B2, “Intestinal folate transporter method” (Albert Einstein College of Medicine of Yeshiva University, priority 2007, dated 2011):
Entries after “also recorded” stand apart in the source; their conditions may differ. Read-outs that look alike come from different tables or passages of the source.

Tests used:
G21 (PCFT) [1] = biological target: T1, G21 (PCFT) (Homo sapiens, UniProt Q96NT5); assay: Two-electrode voltage-clamp electrophysiology in G21 cRNA-injected Xenopus oocytes; type: cell-based
T1 construct: expressed in transfected cells; host or cells: Xenopus laevis oocytes injected with capped G21 cRNA (pSPT64, SP6)
T1 sequence (Q96NT5 1-459): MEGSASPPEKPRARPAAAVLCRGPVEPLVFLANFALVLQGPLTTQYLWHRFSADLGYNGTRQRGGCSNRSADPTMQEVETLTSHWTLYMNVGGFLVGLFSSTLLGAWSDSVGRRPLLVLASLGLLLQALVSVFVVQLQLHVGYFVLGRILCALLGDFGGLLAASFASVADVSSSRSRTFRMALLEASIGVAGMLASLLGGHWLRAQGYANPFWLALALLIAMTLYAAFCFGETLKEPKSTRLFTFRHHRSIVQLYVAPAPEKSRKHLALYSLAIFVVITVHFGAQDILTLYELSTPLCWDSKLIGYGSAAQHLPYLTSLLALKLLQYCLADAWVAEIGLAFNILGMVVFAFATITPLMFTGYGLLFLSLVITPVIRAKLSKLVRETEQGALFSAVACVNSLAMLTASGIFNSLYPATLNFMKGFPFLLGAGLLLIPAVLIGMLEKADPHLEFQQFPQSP
Procedure: (§1) Electrophysiological analyses in Xenopus oocytes. Defolliculated oocytes were injected with 50 nl of water (control) or G21 cRNA (50 ng), and kept at 17° C. in horse serum medium (in mM, 82.5 NaCl, 2.5 KCl, 1 MgCl2, 2.3 CaCl2, 5 HEPES, 5% horse serum, pH 7.5). Electrophysiological recordings were conducted 3-7 days after cRNA injection in buffer (in mM, 90 NaCl, 1 KCl, 1 MgCl2, 1.8 CaCl2, 5 TRIS, 5 MES) as described previously (Jansen and Akabas, 2006). Oocyte holding potential was −80 mV for Km determination. For current-voltage (I-V) relationships, from a −60 mV holding potential step changes in membrane potential were applied for 2 s in 10 mV increments between −100 and 30 mV in the absence and presence of substrate.

G21 (PCFT) [2] = biological target: T1, G21 (PCFT); assay: Inhibition of [3H]folic acid uptake into G21 cRNA-injected Xenopus oocytes; type: cell-based; conditions: for inhibitory effect on uptake of 2 μM [3H]folic acid: 20 μM nonlabeled compound, pH 5.5, 30 min
Procedure: Uptake studies in Xenopus oocytes. […] Radiotracer uptake was determined 3 or 4 days later. […] Uptake was halted by the addition of ice-cold MBS (pH 7.5). Oocytes were washed 10 times thereafter, and solubilized with 10% SDS for measurement of radioactivity. To collapse the pH gradient across the oocyte membrane, seven to 10 oocytes were incubated in MBS (pH 5.5) containing 0, 10, 20, 40, 60 μM FCCP for 20 min, and uptake of transport substrates assessed at pH 5.5.

G21 (PCFT) [3] = biological target: T1, G21 (PCFT); assay: Inhibition of [3H]folic acid uptake in HepG2 cells stably transfected with G21 cDNA; type: cell-based; conditions: 100 μM inhibitor, pH 6.5, HepG2 cells
Procedure: Transfection. Transfection of plasmid DNA was performed in HepG2, HeLa, and Caco2 cells with Lipofectamine 2000 (Invitrogen). HepG2 cells, stably transfected with either pcDNA3.1(+) or pcDNA3.1(+)G21, were generated by G418 selection (600 μg/ml). Double selection with puromycin (5 μg/ml) and hygromycin (50 μg/ml) was adopted to obtain stably transfected Caco-2 cells with both G21-silencing shRNA vectors, or with both non-silencing negative control plasmids.
Transport of folates in HepG2, HeLa and Caco2 cells. Initial uptake of tritiated folates in HepG2, HeLa, or Caco2 cells was assessed using a protocol designed for rapid uptake determinations in cells growing in monolayer culture in liquid scintillation vials (Sharif and Goldman, 2000) except that cells were incubated at pH 7.4 and 37° C. for 20 min before initiation of uptake. Substrate uptake was normalized to protein content.

HCP1 murine ortholog = biological target: T2, HCP1 murine ortholog (Mus musculus, UniProt Q6PEM8, A402V); conditions: HeLa cells, read-out: Km for [55Fe]hemin uptake; cited from earlier work
T2 construct: host or cells: HeLa cells infected with a cDNA-containing adenovirus vector
T2 sequence (Q6PEM8 1-459 A402V): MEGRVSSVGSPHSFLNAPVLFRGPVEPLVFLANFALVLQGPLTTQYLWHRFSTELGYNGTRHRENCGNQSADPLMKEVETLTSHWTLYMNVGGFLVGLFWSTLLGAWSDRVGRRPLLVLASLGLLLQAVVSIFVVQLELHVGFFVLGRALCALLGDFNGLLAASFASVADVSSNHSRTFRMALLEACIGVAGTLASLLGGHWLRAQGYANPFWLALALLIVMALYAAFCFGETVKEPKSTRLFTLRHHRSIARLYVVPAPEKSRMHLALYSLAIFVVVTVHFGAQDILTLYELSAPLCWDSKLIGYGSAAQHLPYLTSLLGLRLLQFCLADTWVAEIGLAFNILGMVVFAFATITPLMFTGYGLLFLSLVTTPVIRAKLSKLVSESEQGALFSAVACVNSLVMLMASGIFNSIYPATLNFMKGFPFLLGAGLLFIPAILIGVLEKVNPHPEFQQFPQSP

[4] = biological target: T3, low-pH folate transporter (Homo sapiens, UniProt Q96NT5); conditions: cited from earlier work
T3 construct: host or cells: HeLa and other cells
T3 sequence (Q96NT5 1-459): T1 sequence (Q96NT5 1-459)

[5] = biological target: T4, reduced folate carrier (SLC19A1) (Homo sapiens, UniProt P41440); conditions: cited from earlier work
T4 sequence (P41440 1-591): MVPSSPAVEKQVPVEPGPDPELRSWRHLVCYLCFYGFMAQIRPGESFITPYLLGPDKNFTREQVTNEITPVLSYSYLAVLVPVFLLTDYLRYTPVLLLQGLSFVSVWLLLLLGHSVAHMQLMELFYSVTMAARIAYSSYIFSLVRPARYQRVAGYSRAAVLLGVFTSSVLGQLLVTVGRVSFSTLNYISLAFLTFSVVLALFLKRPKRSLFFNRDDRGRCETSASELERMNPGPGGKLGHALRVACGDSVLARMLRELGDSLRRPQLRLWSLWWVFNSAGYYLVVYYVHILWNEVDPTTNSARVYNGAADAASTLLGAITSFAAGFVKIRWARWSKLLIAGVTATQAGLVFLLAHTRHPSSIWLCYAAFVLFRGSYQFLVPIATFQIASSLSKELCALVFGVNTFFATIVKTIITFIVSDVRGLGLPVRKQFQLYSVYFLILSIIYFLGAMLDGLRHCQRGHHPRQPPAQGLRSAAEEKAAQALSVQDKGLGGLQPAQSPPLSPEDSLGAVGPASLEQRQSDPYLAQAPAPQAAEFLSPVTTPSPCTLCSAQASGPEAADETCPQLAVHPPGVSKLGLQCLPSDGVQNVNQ

G21 (PCFT) [6] = biological target: T1, G21 (PCFT); assay: Uptake of tritiated folates in G21 cRNA-injected Xenopus oocytes; type: cell-based
Procedure: (§2) Uptake studies in Xenopus oocytes. Defolliculated Xenopus laevis oocytes were prepared as described (Jansen and Akabas, 2006) and injected with 50 nl of water or G21 cRNA (30 ng). Radiotracer uptake was determined 3 or 4 days later. Seven to 10 oocytes were incubated in 500 μl of Modified Barth's Solution (MBS, in mM, 88 NaCl, 2.4 NaHCO3, 2.5 Na pyruvate, 1 KCl, 0.82 MgSO4, 0.41 CaCl2, 0.3 Ca(NO3)2, 15 MES or HEPES) and uptake of tritiated folate substrates assessed at room temperature. Uptake was halted by the addition of ice-cold MBS (pH 7.5). Oocytes were washed 10 times thereafter, and solubilized with 10% SDS for measurement of radioactivity. To collapse the pH gradient across the oocyte membrane, seven to 10 oocytes were incubated in MBS (pH 5.5) containing 0, 10, 20, 40, 60 μM FCCP for 20 min, and uptake of transport substrates assessed at pH 5.5.

[7] = test system: rat jejunum brush border membranes; conditions: read-out: uptake Km, cited from earlier work
[8] = substrate: CN(Cc1cnc2nc(N)nc(N)c2n1)c1ccc(C(=O)N[C@@H](CCC(=O)O)C(=O)O)cc1; assay: cells, lysate or membranes
[9] = substrate: Nc1nc2ncc(CNc3ccc(C(=O)N[C@@H](CCC(=O)O)C(=O)O)cc3)nc2c(=O)[nH]1; assay: Uptake of tritiated folates in G21 cRNA-injected Xenopus oocytes; type: cell-based, human
Procedure: as §2

[10] = substrate: Nc1nc2ncc(CNc3ccc(C(=O)N[C@@H](CCC(=O)O)C(=O)O)cc3)nc2c(=O)[nH]1; assay: Two-electrode voltage-clamp electrophysiology in G21 cRNA-injected Xenopus oocytes; type: cell-based, human; conditions: 17.0 °C
Procedure: as §1

[11] = pH 5.5, intestinal and other human cells
[12] = other: extracellular pH 5.5, pH 5.5
[13] = other: extracellular pH 6.0, pH 6.0
[14] = other: extracellular pH 6.5, pH 6.5
[15] = other: extracellular pH 7.0, pH 7.0
[16] = other: extracellular pH 7.5, pH 7.5

Molecule: hemin
- substrate-induced current (G21 (PCFT) [1]; 100 μM hemin, with 0.1% bovine serum albumin or 200 μM arginine): no current could be detected; also recorded: unable to detect
- inhibitory effect on uptake of 2 μM [3H]folic acid (G21 (PCFT) [2]): weak inhibitor
- inhibition of 2 μM [3H]folic acid uptake (G21 (PCFT) [2]; 100 μM inhibitor, pH 6.5, Xenopus oocytes): 42±7%
- inhibition of 2 μM [3H]folic acid uptake (G21 (PCFT) [3]): 30±5%
- Km (HCP1 murine ortholog): 125 µM

Molecule: Nc1nc(N)c2nc(CNc3ccc(C(=O)N[C@@H](CCCNC(=O)c4ccccc4C(=O)O)C(=O)O)cc3)cnc2n1 [PT523]
- inhibitory effect on uptake of 2 μM [3H]folic acid (G21 (PCFT) [2]): did not inhibit
- Ki ([4]; HeLa and other cells): > 50 µM
- Ki [4, 11]: > 50 µM
- Ki [5]: ~0.7 µM

Molecule: Nc1nc2ncc(CNc3ccc(C(=O)N[C@@H](CCC(=O)O)C(=O)O)cc3)nc2c(=O)[nH]1 [folic acid]
- decrease in Vmax (G21 (PCFT) [6]; over the pH range of 5.5 to 6.5): 2.4 fold
- uptake Vmax (G21 (PCFT) [6]; pH 5.5, same batch of oocytes): 13 pmol/oocyte/hr
- uptake Vmax (G21 (PCFT) [6]; pH 7.5, same batch of oocytes): 5 pmol/oocyte/hr
- increase in Km (G21 (PCFT) [6]; pH increased from 5.5 to 7.0): 2.6 fold
- increase in Km (G21 (PCFT) [6]; pH increased from 7.0 to 7.5): 18 fold
- current amplitude larger than (6S)5-MTHF-induced current (G21 (PCFT) [1]; saturating concentrations, same oocyte, pH 5.5): 39±6%
- inhibition at 100 µM (G21 (PCFT) [2]; read-out: inhibition of 2 μM [3H]folic acid uptake, 100 μM inhibitor, pH 6.5, Xenopus oocytes): 92 ± 2%
- inhibition at 100 µM (G21 (PCFT) [3]; read-out: inhibition of 2 μM [3H]folic acid uptake): 90 ± 0.02%
- Ki [4, 11]: ~0.6 µM
- Ki [5]: ~200 µM
- Km ([7]; pH 5.5): 0.6 µM
- Km ([7]; pH 7.4): 12.3 µM

B1: G21 (PCFT) (Homo sapiens) (protein)
chain: T1 sequence (Q96NT5 1-459)
notes: expressed in transfected cells; host or cells: Xenopus laevis oocytes injected with capped G21 cRNA (pSPT64, SP6)
- Km [8, 12]: 3.4 ± 0.8 (n = 3) μM
- Km [8, 13]: 3.4 ± 0.5 (n = 3) μM
- Km [8, 14]: 7.3 ± 0.6 (n = 3) μM
- Km [8, 15]: 16.3 ± 2.8 (n = 4) μM
- Km [8, 16]: 130.7 ± 11.6 (n = 3) μM
- Km ([8]; other: pH 5.5, holding potential −80 mV, pH 5.5, 17.0 °C): 2.01 ± 0.16 µM
- Km ([8]; other: pH 6.5, holding potential −80 mV, pH 6.5, 17.0 °C): 8.07 ± 0.60 µM
- Km [9, 12]: 1.3 ± 0.1 µM
- Km [9, 13]: 1.5 ± 0.1 (n = 2) μM
- Km [9, 14]: 2.7 ± 0.2 (n = 3) μM
- Km [9, 15]: 6.0 ± 2.6 (n = 2) μM
- Km [9, 16]: 56.2 ± 5.6 µM
- Km ([10]; other: pH 5.5, holding potential −80 mV, pH 5.5): 0.83 ± 0.05 µM
- Km ([10]; other: pH 6.5, holding potential −80 mV, pH 6.5): 2.99 ± 0.09 µM
